Assay results published in US8822508B2, “2-oxo-1-pyrrolidinyl imidazothiadiazole derivatives” (UCB Pharma, S.A., priority 2009, dated 2014).

conditions: Gower A. J. et al., Eur. J. Pharmacol. (1992), 222, 193-203; cited from earlier work

SMILES	activity in the treatment of epilepsy (seizure control)
CC[C@H](C(N)=O)N1CCCC1=O [(R)-α-ethyl-2-oxo-1-pyrrolidine acetamide]	completely lacks activity

conditions: not given

melting point	SMILES
73 °C	COCc1nn2c(CN3C[C@H](CC(F)(F)F)CC3=O)c(C(F)(F)F)nc2s1 [Compound 12, (4S)-1-{[2-(methoxymethyl)-6-(trifluoromethyl)imidazo[2,1-b][1,3,4]thiadiazol-5-yl]methyl}-4-(2,2,2-trifluoroethyl)pyrrolidin-2-one]
72 °C	COCc1nn2c(CN3C[C@@H](CC(F)(F)F)CC3=O)c(C(F)(F)F)nc2s1 [Compound 11, (4R)-1-{[2-(methoxymethyl)-6-(trifluoromethyl)imidazo[2,1-b][1,3,4]thiadiazol-5-yl]methyl}-4-(2,2,2-trifluoroethyl)pyrrolidin-2-one]
60 °C	COCc1nn2c(CN3CC(CCC(F)(F)F)CC3=O)c(Cl)nc2s1 (single isomer, unassigned; (+)) [Compound 27, (+)-1-{[6-chloro-2-(methoxymethyl)imidazo[2,1-b][1,3,4]thiadiazol-5-yl]methyl}-4-(3,3,3-trifluoropropyl)pyrrolidin-2-one]
73 °C	COCc1nn2c(CN3CC(CC(F)(F)Cl)CC3=O)c(C(F)F)nc2s1 (single isomer, unassigned; (+)) [Compound 23, (+)-4-(2-chloro-2,2-difluoroethyl)-1-{[6-(difluoromethyl)-2-(methoxymethyl)imidazo[2,1-b][1,3,4]thiadiazol-5-yl]methyl}pyrrolidin-2-one]
154 °C	O=C1C[C@H](CC(F)(F)Cl)CN1Cc1c(C(F)(F)F)nc2sc(CO)nn12 [Compound 8, (4R)-4-(2-chloro-2,2-difluoroethyl)-1-{[2-(hydroxymethyl)-6-(trifluoromethyl)imidazo[2,1-b][1,3,4]thiadiazol-5-yl]methyl}pyrrolidin-2-one]
70 °C	COCc1nn2c(CN3CC(CC(C)(F)F)CC3=O)c(C(F)(F)F)nc2s1 (single isomer, unassigned; (+)) [Compound 2, (+)-4-(2,2-difluoropropyl)-1-{[2-(methoxymethyl)-6-(trifluoromethyl)imidazo[2,1-b][1,3,4]thiadiazol-5-yl]methyl}pyrrolidin-2-one]
67 °C	COCc1nn2c(CN3CC(CC(C)(F)F)CC3=O)c(C(F)(F)F)nc2s1 (single isomer, unassigned; (-)) [Compound 3, (−)-4-(2,2-difluoropropyl)-1-{[2-(methoxymethyl)-6-(trifluoromethyl)imidazo[2,1-b][1,3,4]thiadiazol-5-yl]methyl}pyrrolidin-2-one]
